Results published in paper PMC11545984, “1,3-Dipolar Cycloaddition of Nitrile Oxides and Nitrilimines to (−)-β-Caryophyllene: Stereoselective Synthesis of Polycyclic Derivatives and Their Biological Testing” (International Journal of Molecular Sciences, 2024).
Marks after values point to notes of the source that are not given here.

Key:
[1] = tested on: influenza virus A/Puerto Rico/8/34 (H1N1); experiment: Antiviral (cytoprotective) activity in MDCK cells, MTT; format: cell-based; conditions: H1N1; infected MDCK cells, m.o.i. 0.01, 48 h, 50% cell protection; read-out: IC50
[2] = tested on: a variety of cancer cell lines; experiment: IC50 determination (MTT test), variety of cancer cell lines; format: cell-based; conditions: Homo sapiens, 72 h, read-out: IC50 range on a variety of cancer cell lines
Method: (§1) Colon cancer (HCT116, HT29), breast cancer (MCF7, SKBR3), melanoma (SK-MEL28), lung cancer (A549), prostate cancer (DU145), human normal cells (VA-13 and HEK293), and murine mammary cell lines (EMT6) were purchased from ATCC (Manassas, VA, USA). Cells were routinely grown in RPMI 1640 culture medium, supplemented with 10% fetal bovine serum, glutamine, and 100 U/mL penicillin. HCT116, HT29, MCF7, SKBR3, SK-MEL28, A549, DU145, VA-13, HEK293, and EMT6 cells were grown in flasks in RPMI 1640 fresh culture medium with supplements at 37 °C and 5% CO2. Cells were grown as monolayer cultures, and the cells in the exponential growth phase were trypsinized and suspended in the supplemented RPMI 1640 medium.
To evaluate the cytotoxicity of the SDE-series in vitro, we placed cells in (15–30) × 10^3 cells/mL concentrations in 96-well culture plates for 24 h. Cells were counted after treatment with Trypan blue solution (0.4%). After 24 h, the cells were exposed to six tested concentrations of SDE-series (50–1.5 µM) dilutions to pre-incubated cells at 37 °C for 72 h. In control wells with untreated cells, only (DMSO + PBS) was added. Cell viability was measured by the standard MTT test. The absorbance was measured at 540 nm using a Multiskan™ FC microplate photometer and the Skanlt software 6.1 RE for microplate reader, both from Thermo Scientific (Waltham, MA, USA). […]

in vitro = conditions: dog
VA-13 = experiment: Initial cytotoxicity testing (MTT test), VA-13; format: cell-based, human; conditions: human healthy cells, MTT, 72 h, two concentrations 50–100 µM
Method: as §1
(§2) To evaluate the cytotoxicity of the compounds, we placed cells in (20–30) × 10^3 cells/mL concentrations in 96-well culture plates for 24 h. Cells were counted after treatment with Trypan blue solution (0.4%). They were then exposed to two different concentrations of compounds 16–30 (50–100 µM) dilutions in pre-incubated cells at 37 °C for 72 h. In control wells with untreated cells, only (DMSO + PBS) was added. Cell viability was measured by the standard MTT test. The stock solutions of each compound were prepared in DMSO following by preparation of serial dilutions in PBS.
(§3) The absorbance was measured at 540 nm using a Multiskan™ FC microplate photometer and the Skanlt software 6.1 RE for microplate reader, both from Thermo Scientific (Waltham, MA, USA). Experiments were carried out in triplicate; to perform the statistical analysis, more concentrations should be evaluated.

SKBR3 = experiment: IC50 determination (MTT test), SKBR3; format: cell-based; conditions: Homo sapiens, SK-BR-3, breast cancer, 72 h
Method: as §1
(§4) To evaluate the cytotoxicity of the SDE-series in vitro, we placed cells in (15–30) × 10^3 cells/mL concentrations in 96-well culture plates for 24 h. Cells were counted after treatment with Trypan blue solution (0.4%). After 24 h, the cells were exposed to six tested concentrations of SDE-series (50–1.5 µM) dilutions to pre-incubated cells at 37 °C for 72 h. In control wells with untreated cells, only (DMSO + PBS) was added. Cell viability was measured by the standard MTT test. The absorbance was measured at 540 nm using a Multiskan™ FC microplate photometer and the Skanlt software 6.1 RE for microplate reader, both from Thermo Scientific (Waltham, MA, USA). In vitro experiments were carried out in triplicate. GraphPad prism version 9.0 was used to determine the IC50. The IC50 data are presented as mean (±) standard deviation (SD).

DU145 [3] = experiment: IC50 determination (MTT test), DU145; format: cell-based; conditions: Homo sapiens, DU-145, prostate cancer, 72 h
Method: as §1, §4

[4] = tested on: DU145, A549, VA-13, HEK293, EMT6; experiment: Initial cytotoxicity testing (MTT test), all cell lines together; format: cell-based
Method: as §1, §2, §3

HEK293 = experiment: Initial cytotoxicity testing (MTT test), HEK293; format: cell-based, human; conditions: human healthy cells, MTT, 72 h, two concentrations 50–100 µM
Method: as §1, §2, §3

HCT116 = experiment: IC50 determination (MTT test), HCT116; format: cell-based, human; conditions: 72 h; for IC50: Homo sapiens, HCT-116, colon cancer; for IC50 HCT116: colon cancer
Method: as §1, §4

DU145 [5] = experiment: Initial cytotoxicity testing (MTT test), DU145; format: cell-based, human; conditions: for cytotoxicity DU145: human cancer cell line, MTT, 72 h, two concentrations 50–100 µM; for IC50: Homo sapiens, DU-145, 72 h, read-out: cytotoxicity DU145
Method: as §1, §2, §3

HEK-293 = experiment: IC50 determination (MTT test), HEK-293; format: cell-based; conditions: Homo sapiens, HEK293, normal cells, 72 h
Method: as §1, §4

A549 [6] = experiment: IC50 determination (MTT test), A549; format: cell-based; conditions: Homo sapiens, lung cancer, 72 h
Method: as §1, §4

A549 [7] = experiment: Initial cytotoxicity testing (MTT test), A549; format: cell-based, human; conditions: for cytotoxicity A549: human cancer cell line, MTT, 72 h, two concentrations 50–100 µM; for IC50: Homo sapiens, A549, 72 h, read-out: cytotoxicity A549
Method: as §1, §2, §3

EMT6 = experiment: Initial cytotoxicity testing (MTT test), EMT6; format: cell-based, murine; conditions: for cytotoxicity EMT6: murine mammary cell line, MTT, 72 h, two concentrations 50–100 µM
Method: as §1, §2, §3

SK-MEL-28 = experiment: IC50 determination (MTT test), SK-MEL-28; format: cell-based, human; conditions: 72 h; for IC50: Homo sapiens, SK-MEL-28, melanoma; for IC50 SK-MEL-28: melanoma
Method: as §1, §4

HT-29 = experiment: IC50 determination (MTT test), HT-29; format: cell-based; conditions: Homo sapiens, colon cancer, 72 h
Method: as §1, §4

MCF7 = experiment: IC50 determination (MTT test), MCF7; format: cell-based; conditions: Homo sapiens, breast cancer, 72 h
Method: as §1, §4

[8] = Initial cytotoxicity testing (MTT test), VA-13; format: cell-based, human; conditions: human healthy cells, MTT, 72 h, two concentrations 50–100 µM
Method: as §1, §2, §3

[9] = Initial cytotoxicity testing (MTT test), HEK293; format: cell-based, human; conditions: human healthy cells, MTT, 72 h, two concentrations 50–100 µM
Method: as §1, §2, §3

[10] = tested on: influenza virus A/Puerto Rico/8/34 (H1N1); experiment: Time-of-addition experiment in MDCK cells; format: cell-based; conditions: m.o.i. 10, addition from -2 h to 6 hpi

Structure (SMILES) | IC50 [1] | CC50 at 48 h (in vitro) | cytotoxicity VA-13 (VA-13) | IC50 (SKBR3) | IC50 (DU145 [3]) | toxicity to all cells [4] | cytotoxicity HEK293 (HEK293) | IC50 (HCT116) | cytotoxicity DU145 (DU145 [5]) | IC50 (HEK-293) | IC50 (A549 [6]) | cytotoxicity A549 (A549 [7]) | cytotoxicity EMT6 (EMT6) | IC50 (SK-MEL-28) | IC50 (HT-29) | IC50 (MCF7) | IC50 at 72 h [8] | IC50 at 72 h [9] | IC50 HCT116 (HCT116) | IC50 (DU145 [5]) | also measured
CC1=CCCC2(CC(C)=NN2c2ccccc2)C2CC(C)(C)C2CC1 [Compound 21a, (1S,2R,9R,E)-5′,6,10,10-Tetramethyl-2′-phenyl-2′,4′-dihydrospiro[bicyclo [7.2.0]undecane-2,3′-pyrazol]-5-ene] | 6.25 ± 0.7 µM | 28 ± 1.9 µM | + * | 12.3 ± 1 µM | 18.8 ± 0.4 µM | extremely toxic, killing all cells within 48 h | + * | 22.4 ± 0.8 µM | + * | 14.2 ± 0.9 µM | 21.2 ± 0.9 µM | + * | + * | 24.9 ± 1.3 µM | 39.4 ± 2.1 µM | > 50 µM | – | – | – | – | IC50 [2]: 12.3 to 39.4 µM
CC1(C)C[C@H]2[C@H]1CC[C@]1(C)ON=C(c3ccc(Cl)cc3)[C@H]1CC[C@@]21CC(c2ccc(Cl)cc2)=NO1 [Compound 25, (3aR,6R,6aS,8aR,10aS)-3,3′-Bis(4-chlorophenyl)-8,8,10a-trimethyl-3a,4,5,6a,7,8,8a,9,10,10a-decahydro-4′H-spiro[cyclobuta [5,6]cyclonona [1,2-d]isoxazole-6,5′-isoxazole]] | 34.1 ± 4.4 µM | 426 ± 26.9 µM | – | > 50 µM | > 50 µM | – | – | > 50 µM | – | > 50 µM | > 50 µM | – | – | > 50 µM | > 50 µM | > 50 µM | > 50 µM | > 50 µM | did not show any cytotoxic effects | 50 to 100 µM | toxicity to DU145 (DU145 [5]; initial testing): harmful; IC50 (A549 [7]): 50 to 100 µM; toxicity to A549 (A549 [7]; initial testing): harmful; IC50 SK-MEL-28 (SK-MEL-28): did not show any cytotoxic effects; latest time of addition with virus-inhibiting activity [10]: ≤ 6 hpi
COc1cccc(OC)c1C1=NN(c2c(Cl)cc(Cl)cc2Cl)[C@]2(CC/C=C(\C)CC[C@@H]3[C@@H]2CC3(C)C)C1 [Compound 23a, (1S,2R,9R,E)-5′-(2,6-Dimethoxyphenyl)-6,10,10-trimethyl-2′-(2,4,6-trichlorophenyl)-2′,4′-dihydrospiro[bicyclo [7.2.0]undecane-2,3′-pyrazol]-5-ene] | > 5.59 µM | 10.2 ± 0.8 µM | – | > 50 µM | 28.8 ± 1.2 µM | – | – | > 50 µM | – | 39.2 ± 3 µM | 33.4 ± 2.2 µM | – | + * | > 50 µM | 45 ± 1.9 µM | > 50 µM | < 50 µM | < 50 µM | did not show any cytotoxic effects | < 50 µM | IC50 ([4]; after 72 h, read-out: IC50 on all cells): < 50 µM; IC50 (A549 [7]): < 50 µM; toxicity against EMT6 (EMT6; initial testing): extremely toxic; IC50 SK-MEL-28 (SK-MEL-28): did not show any cytotoxic effects
COc1ccc(C2=NO[C@]3(CC/C=C(\C)CC[C@@H]4[C@@H]3CC4(C)C)C2)cc1 [Compound 17a, (1S,2R,9R,E)-3′-(4-Methoxyphenyl)-6,10,10-trimethyl-4′H-spiro[bicyclo [7.2.0]undecane-2,5′-isoxazol]-5-ene] | 8.03 ± 1.1 µM | 37 ± 2.2 µM | + * | 36.5 ± 3.2 µM | 42.6 ± 3.4 µM | extremely toxic, killing all cells within 48 h | + * | 39.4 ± 2.8 µM | + * | 44.3 ± 4.1 µM | 30.7 ± 2.1 µM | + * | + * | 38.9 ± 3.9 µM | 47.1 ± 3 µM | > 50 µM | – | – | – | – | –
